Test results reported in PMC7996170, “Novel Method for Quantifying AhR-Ligand Binding Affinities Using Microscale Thermophoresis” (Biosensors, 2021).
Where two headings read alike, the source gives them in different places.

Assays:
[1] = biological target: T1, recombinant AhR-ARNT complex (Homo sapiens, UniProt P35869); assay: Competition radioligand binding assay ([3H]TCDD displacement) on purified recombinant AhR-ARNT; conditions: for competition with [3H]TCDD (in words): 4 nM [3H]TCDD, increasing concentrations of unlabeled competitor
T1 construct: encompassing the bHLH-PAS A-PAS B domains (amino acid residues 23 to 475); His6 (N, cleaved yes); FleB (Yersinia flagellin subunit, residues 54 to 332, UniProt A1JSQ5) expression tag followed by HRV 3C site (N, cleaved yes); made in house; host or cells: E. coli BL21(DE3)
T1 sequence (P35869 23-475): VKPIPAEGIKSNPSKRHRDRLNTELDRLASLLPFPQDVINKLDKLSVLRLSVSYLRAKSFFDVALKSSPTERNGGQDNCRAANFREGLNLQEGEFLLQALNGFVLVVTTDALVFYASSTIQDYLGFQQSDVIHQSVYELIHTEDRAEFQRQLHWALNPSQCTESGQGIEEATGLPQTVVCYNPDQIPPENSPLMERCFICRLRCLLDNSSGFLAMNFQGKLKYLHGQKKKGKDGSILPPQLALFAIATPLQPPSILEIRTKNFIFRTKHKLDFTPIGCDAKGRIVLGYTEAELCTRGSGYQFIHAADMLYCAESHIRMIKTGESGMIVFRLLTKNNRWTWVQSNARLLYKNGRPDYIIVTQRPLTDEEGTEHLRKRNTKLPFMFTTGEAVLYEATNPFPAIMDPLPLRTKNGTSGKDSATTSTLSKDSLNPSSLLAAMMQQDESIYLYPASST
T1 sequence (P53762 with tags, fused parts or gaps C256S/DEL274-297/DEL351-358 partner): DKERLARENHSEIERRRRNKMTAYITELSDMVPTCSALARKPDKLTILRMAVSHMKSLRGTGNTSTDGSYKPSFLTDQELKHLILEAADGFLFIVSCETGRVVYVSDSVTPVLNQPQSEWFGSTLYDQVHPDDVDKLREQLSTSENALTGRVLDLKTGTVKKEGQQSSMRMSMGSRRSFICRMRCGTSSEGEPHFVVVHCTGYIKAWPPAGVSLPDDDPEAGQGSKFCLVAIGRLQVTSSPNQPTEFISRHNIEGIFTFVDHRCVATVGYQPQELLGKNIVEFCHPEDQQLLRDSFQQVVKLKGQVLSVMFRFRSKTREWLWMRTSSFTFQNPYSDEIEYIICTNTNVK
Experimental: Radioligand binding assays were performed as previously established. Briefly, for saturation experiments, 0.5 mg/mL of purified AhR-ARNT or ARNT protein was diluted in MDEG buffer (25 mM MOPS, 1 mM DTT, 1 mM EDTA, 10% glycerol, 20 mM molybdate, pH 7.5) and incubated with increasing concentrations of radioactively labeled [^3H]TCDD tracer. Reactions were supplemented with liver lysate of AhR-deficient mice (AhR^-/-, C57BL/6 background) to a final protein concentration of 5 mg/mL to reduce unspecific binding and adsorption of the tracer to plastic surfaces. Liver lysates were prepared in MDEG buffer by homogenization using the gentleMacs Dissociator (Miltenyi Biotec), followed by ultracentrifugation at 100,000× g and 4 °C for 1 h. Cytosolic fractions were collected, protein concentration determined by Bradford reaction (Protein Assay Kit, Pierce), and further diluted to a final protein concentration of 5 mg/mL in MDEG buffer. […] Subsequently, 30 μL of a Norit A charcoal suspension (100 mg/mL equilibrated in MDEG buffer) was added into each 200 µL of the reaction mixture. Samples were kept on ice for 15 min and centrifuged for another 15 min at 25,000× g and 4 °C. Following this, 150 μL of the supernatant was carefully transferred and radioactivity was measured in a liquid scintillation counter (Tri-Carb 3110TR, PerkinElmer). All samples were measured in triplicate. For competition assays, a constant concentration of [^3H]TCDD (4 nM final) was used, to which a serial dilution of unlabeled competitor molecule dissolved in DMSO was added in excess. All subsequent steps were carried out as described above. The specific binding was defined as the difference of radioactivity between the reactions supplemented with the recombinant protein and AhR-deficient (Ahr^-/-) mouse lysates. Analysis of the data and calculation of the binding constants Kd and receptor density Bmax were performed with GraphPad Prism 7 using a nonlinear regression fitting a saturation binding isotherm. For competition studies, the IC50 values were obtained by fitting a one-site competitive binding equation to the experimental data. Ki values were derived from IC50 using the Cheng–Prusoff equation [19].

[2] = biological target: T1, recombinant AhR-ARNT complex; assay: Label-free microscale thermophoresis (MST) ligand binding
[3] = cited from earlier work
[4] = biological target: T2, purified AhR-ARNT complex (recombinant hAhR23–475 with mARNT85–465) (Homo sapiens, UniProt P35869); assay: Radioligand saturation binding assay with [3H]TCDD on purified recombinant AhR-ARNT; conditions: 4 °C, 24 h
T2 construct: encompassing the bHLH-PAS A-PAS B domains (amino acid residues 23 to 475); His6 (N, cleaved yes); FleB (Yersinia flagellin subunit, residues 54 to 332, UniProt A1JSQ5) expression tag followed by HRV 3C site (N, cleaved yes); made in house; host or cells: E. coli BL21(DE3)
T2 sequence (P35869 23-475): as the sequence (P35869 23-475) above
T2 sequence (P53762 with tags, fused parts or gaps C256S/DEL274-297/DEL351-358 partner): as the sequence (P53762 with tags, fused parts or gaps C256S/DEL274-297/DEL351-358 partner) above
Experimental: Radioligand binding assays were performed as previously established. Briefly, for saturation experiments, 0.5 mg/mL of purified AhR-ARNT or ARNT protein was diluted in MDEG buffer (25 mM MOPS, 1 mM DTT, 1 mM EDTA, 10% glycerol, 20 mM molybdate, pH 7.5) and incubated with increasing concentrations of radioactively labeled [^3H]TCDD tracer. Reactions were supplemented with liver lysate of AhR-deficient mice (AhR^-/-, C57BL/6 background) to a final protein concentration of 5 mg/mL to reduce unspecific binding and adsorption of the tracer to plastic surfaces. Liver lysates were prepared in MDEG buffer by homogenization using the gentleMacs Dissociator (Miltenyi Biotec), followed by ultracentrifugation at 100,000× g and 4 °C for 1 h. Cytosolic fractions were collected, protein concentration determined by Bradford reaction (Protein Assay Kit, Pierce), and further diluted to a final protein concentration of 5 mg/mL in MDEG buffer. […] Following this, 150 μL of the supernatant was carefully transferred and radioactivity was measured in a liquid scintillation counter (Tri-Carb 3110TR, PerkinElmer). All samples were measured in triplicate. […] The specific binding was defined as the difference of radioactivity between the reactions supplemented with the recombinant protein and AhR-deficient (Ahr^-/-) mouse lysates. […]

[5] = biological target: T3, mARNT (Mus musculus, UniProt P53762, C256S/DEL274-297/DEL351-358); assay: Label-free MST on mARNT alone; format: binding; conditions: Figure S3
T3 construct: Mouse ARNT (residues 85–465) was expressed as N-terminal His6-fusion protein; His6 (N); made in house; host or cells: E. coli BL21(DE3)
T3 sequence (P53762 with tags, fused parts or gaps C256S/DEL274-297/DEL351-358): as the sequence (P53762 with tags, fused parts or gaps C256S/DEL274-297/DEL351-358 partner) above
Experimental: Microscale thermophoresis (MST) experiments were performed according to the manufacturer’s instructions (NanoTemper Technologies GmbH) using a Monolith NT.LabelFree. In brief, 250 nM of purified AhR-ARNT proteins were diluted in assay buffer (20 mM HEPES pH 8.0, 200 mM NaCl, 5% glycerol, 5 mM DTT, and 0.1% Pluronic F-127) and incubated for 5 min, in the presence of a serial dilution of the different ligands (ligand solubilized in DMSO at a final constant concentration of 2%). After incubation, samples were filled into NT.LabelFree Zero Background MST Premium coated capillaries (NanoTemper Technologies GmbH) and measurements were taken at a constant temperature of 22 °C. MST traces were collected with an LED excitation power of 20% and an MST laser power of 20% and 40%. The MO.Control Analysis software (NanoTemper) was used to analyze the interaction affinity and the dissociation constant (Kd) for each ligand using the Kd fit model. In short, changes in the thermophoretic movement were depicted as changes in the normalized fluorescence ratio before and after heating (ΔFnorm [‰]) and plotted as a function of the ligand concentration. The resulting binding curve is fitted by the software using the best fitting method to derive binding constants and thus the Kd.

[6] = biological target: endogenous hAhR; design: method as in PMID 2848187; conditions: endogenous hAhR in hepatocyte cell lysates; read-out: equilibrium dissociation constant (Kd); cited from earlier work
[7] = tested on: murine AhR; conditions: higher affinity of murine AhR than human AhR; cited from earlier work

Oc1cccc2nc3ccccc3nc12 [1-HP, 1-Hydroxyphenazine]
Ki [1]: 9.2 µM
Kd [2]: 943 ± 176 nM

O=Cc1c2[nH]c3ccccc3c2cc2[nH]c3ccccc3c12 [FICZ, 6-Formylindolo [3,2-b] carbazole]
competition with [3H]TCDD (in words) ([1]; 24 h): failed to see competition
stability in aqueous solution (in words) ([3]; tryptophan group): high instability

Clc1cc2c(cc1Cl)Oc1cc(Cl)c(Cl)cc1O2 [TCDD, 2,3,7,8-Tetrachlorodibenzo-p-dioxin]
maximal binding capacity (Bmax) ([4]; [3H]TCDD saturation binding): 60.3 ± 17.3 pmoles/mg protein
Kd ([4]; [3H]TCDD tracer, 0.5 mg/mL protein, AhR-/- mouse liver lysate added): 39 ± 20 nM
competition with [3H]TCDD (in words) ([1]; 24 h): only an initial competition
displacement of [3H]TCDD from AhR-ARNT by unlabeled competitor (in words) ([1]; increasing protein, constant [3H]TCDD, 48 h, Figure S2): displacement by unlabeled dioxin detectable
Kd [2]: 139 ± 99 nM
ligand-induced differences in MST traces with mARNT alone (in words) [5]: not when mARNT was used alone
Kd [6]: 2.7 to 4.2 nM
binding affinity of murine AhR relative to human AhR [7]: ~10 fold
solubility in water (in words) [3]: insolubility in water

Cc1ccccc1N=Nc1ccc(NC(=O)c2ccnn2C)c(C)c1 [CH-223191, 2-Methyl-2H-pyrazole-3-carboxylic acid (2-methyl-4-o-tolylazo-phenyl)-amide]
Ki ([1]; displacement of 4 nM [3H]TCDD, 24 h, 4 °C, read-out: Ki (from IC50 by Cheng–Prusoff)): 12.2 µM
Kd ([2]; 250 nM AhR-ARNT, 2% DMSO, 22 °C, label-free, read-out: Kd (MST)): 496 ± 82 nM
